The series can be described thus: Dissociation constant (Kb, pKb) of the water-soluble compounds.

Description: The following aqueous solutions were applied onto the dye-fixing layer.

`O.O.O.O.O.O.O.O.O.[Na+].[Na+].[Na+].[S-]c1nc([S-])nc([S-])n1` [Trisodium trithiocyanurate nonahydrate] had a pKb of 3. Besides, the Kb (dissociation constant) is listed as 1 × 10^−3.
Compound `O=C([O-])c1ccc(O)cc1.[Na+]` [4-Hydroxybenzoic acid Na salt] showed a pKb of 12.1.

The values above are taken from patent US6926936B2, “Ink-jet recording sheet with improved ozone resistance” (Felix Schoeller Jr. Foto-und Spezialpapiere GmbH & Co. KG, priority 2002, dated 2005).
